From patent US20220125837A1, “METHODS FOR CONTROLLED ELIMINATION OF THERAPEUTIC CELLS” (Bellicum Pharmaceuticals, Inc., priority 2014, published 2022)

Key:
[1] = system: iCasp9M.IRES.GFPhigh-transduced CTLs; assay: SCID mouse-human xenograft: elimination of iCasp9M CTLs by CID; type: in vivo, NOD/SCID mice; conditions: single dose of CID (50 μg AP20187 intraperitoneally), three days after
Experimental: Non-obese diabetic severe combined immunodeficient (NOD/SCID) mice, 6 to 8 weeks of age, were irradiated (250 rad) and injected subcutaneously in the right flank with 10×10^6 to 15×10^6 LCLs resuspended in Matrigel (BD Bioscience). Two weeks later mice bearing tumors that were approximately 0.5 cm in diameter were injected into the tail vein with a 1:1 mixture of nontransduced and iCasp9.I.GFPhigh-transduced EBV CTLs (total 15×10^6). At 4 to 6 hours prior and 3 days after CTL infusion, mice were injected intraperitoneally with recombinant hIL-2 (2000 U; Proleukin; Chiron). […] By FACS analysis, the number of GFP+ cells within the gated CD3^+ population was evaluated. […]
The function of iCasp9M also was evaluated in transduced EBV-CTLs in vivo. […] Three days after CID/carrier administration, tumors were analyzed for human CD3^+/GFP^+ cells. […]
The function of iCasp9M in vivo, was assayed. […] On day 3 after CTL administration, mice received either CID (50 μg AP20187; (black diamonds, n=6) or carrier only (black squares, n=5) and on day 6 the presence of human CD3+/GFP+ T cells in the tumors was analyzed. Human CD3+ T cells isolated from the tumors of a control group of mice that received only nontransduced CTLs (15×10^6 CTLs; n=4) were used as a negative control for the analysis of CD3+/GFP+ T cells within the tumors.

iCasp9-transduced MSCs = assay: Apoptosis of iCasp9-ΔCD19 transduced undifferentiated MSCs after CID (annexin V/7-AAD)
MT-2 cells = assay: CID-induced apoptosis (annexin V) in transduced MT-2 cells; type: cell-based, human; conditions: 10 nM CID for 8 hours
iFas-transduced CTLs = assay: CID-induced elimination of GFP+ iFas-transduced EBV-CTLs; type: cell-based, human; conditions: GFPhigh, 1:1 with nontransduced, 10 nM CID, day 7
From the text: Caspase-9 was selected as an inducible proapoptotic molecule for clinical use rather than previously presented iFas and iFADD, because Caspase-9 acts relatively late in apoptosis signaling and therefore is expected to be less susceptible to inhibition by apoptosis inhibitors. Thus, suicide function should be preserved not only in malignant, transformed T-cell lines that express antiapoptotic molecules, but also in subpopulations of normal T cells that express elevated antiapoptotic molecules as part of the process to ensure long-term preservation of memory cells. To further investigate the hypothesis, the function of iCasp9M and iFas was first compared in EBV-CTLs. To eliminate any potential vector based difference, inducible Fas also was expressed in the MSCV.IRES.GFP vector, like iCasp9. […]
Elimination of GFP^+ cells after administration of 10 nM CID was more rapid and more efficient in iCasp9M than in iFas-transduced CTLs (99.2%+/−0.14% of iCasp9M-transduced cells compared with 89.3%+/−4.9% of iFas-transduced cells at day 7 after CID; P<0.05). On the day of LCL stimulation, 10 nM CID was administered, and GFP was measured at the time points indicated to determine the response to CID. […]

[2] = system: differentiated iCasp9-positive MSCs; assay: Apoptosis of differentiated iCasp9 MSCs after CID (TUNEL, cell density); conditions: adipocytic differentiation; 50 nM CID; 24 hours; from 584

## CC[C@H](C(=O)N1CCCC[C@H]1C(=O)O[C@H](CCc1ccc(OC)c(OC)c1)c1cccc(OCC(=O)NCC(CNC(=O)COc2cccc([C@@H](CCc3ccc(OC)c(OC)c3)OC(=O)[C@@H]3CCCCN3C(=O)[C@@H](CC)c3cc(OC)c(OC)c(OC)c3)c2)CN(C)C)c1)c1cc(OC)c(OC)c(OC)c1 [AP20187]
[1]; listed as CID
  reduction in the number of human CD3+/GFP+ T cells in tumors vs carrier: > 99%
[1]; listed as dimerizer
  reduction in the number of human CD3+/GFP+ T cells in tumors vs carrier: more than 99%
iCasp9-transduced MSCs; 50 nM CID, 24 hrs
  apoptosis index of iCasp9-negative cells: 20±7%
iCasp9-transduced MSCs; 50 nM CID, representative FACS
  annexin positive, negative population (iCasp neg/CID): 19%
  annexin positive, non-transduced control MSC (Control/CID): 15%
iCasp9-transduced MSCs; 50 nM CID, within 24 hrs
  apoptotic death of iCasp9-positive cells: 93±1%
iCasp9-transduced MSCs; magnetic immunoselection
  immunoselected iCasp9-CD19-positive cells apoptotic after CID: More than 95%
MT-2 cells; iCasp9M-transduced MT-2
  apoptosis (annexin-V staining): 57.9%+/−11.9%
MT-2 cells; iFas-transduced MT-2
  apoptosis (annexin-V staining): 19.3%+/−8.4%
iFas-transduced CTLs
  Elimination of GFP+ cells: 89.3%+/−4.9%
[2]
  cell density after CID: < 14 cells/mm2
